Experiment [1] concerns the target T1, Farnesyl pyrophosphate synthase (Rattus norvegicus) (UniProt P05369).
T1 sequence (whole entry): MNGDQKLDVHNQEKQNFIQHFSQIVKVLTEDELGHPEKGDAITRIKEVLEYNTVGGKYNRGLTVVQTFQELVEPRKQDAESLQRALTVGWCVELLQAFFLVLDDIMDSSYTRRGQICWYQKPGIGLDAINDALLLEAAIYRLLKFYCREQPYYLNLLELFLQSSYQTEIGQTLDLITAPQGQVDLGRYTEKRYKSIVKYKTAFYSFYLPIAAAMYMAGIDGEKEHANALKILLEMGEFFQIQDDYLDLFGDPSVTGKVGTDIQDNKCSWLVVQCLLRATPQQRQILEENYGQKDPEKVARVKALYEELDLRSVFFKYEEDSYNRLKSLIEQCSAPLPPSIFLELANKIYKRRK
Kind of experiment: Inhibition of rat FPPS expressed in Escherichia coli BL21 (DE3) using GPP and IPP as substrate at 10 uM incubated for 10 mins by microplate reader.

The target of experiment [2] is T2, Farnesyl pyrophosphate synthase (Rattus norvegicus, UniProt P05369).
T2 sequence (P05369 whole entry): T1 sequence (whole entry)
Nature of the experiment: Binding affinity to rat FPPS expressed in Escherichia coli BL21 (DE3) by isothermal titration calorimetry. A general note: Isothermal titration calorimetry measures the heat released or taken up as one component is titrated into another.

Another experiment concerns LoVo. Kind of experiment: Cytotoxicity against FPPS-positive human Lovo cells assessed as reduction in cell viability measured after 48 hrs by MTT assay. In general terms: Tetrazolium assays rely on reduction of a dye to a coloured formazan, in cell work by metabolically active cells.
Another experiment has as its system HCT-116. Kind of experiment: Cytotoxicity against FPPS-positive human HCT116 cells assessed as reduction in cell viability measured after 48 hrs by MTT assay. The settings on record: HCT-116, 48 h.
The next experiment has as its system MDA-MB-231. Kind of experiment: Cytotoxicity against FPPS-negative human MDA-MB-231 cells assessed as reduction in cell viability measured after 48 hrs by MTT assay. The experiment is classed as functional, cell-based. The settings on record: MDA-MB-231, 48 h.

`CC(C)Oc1ccc(CNC(=O)C2CCCN(S(=O)(=O)N3CCOCC3)C2)cc1` (configuration not stated): the inhibition in experiment [1] came out at 28.9%. For the same compound, the Kd in experiment [2] came out at 72 µM.

As for `O=P(O)(O)C(O)(Cn1ccnc1)P(=O)(O)O` [ZOLEDRONIC ACID], the IC50 in the experiment on LoVo was 34.9 µM; in the experiment on HCT-116, 61.6 µM; in the experiment with MDA-MB-231 it was more than 100 µM.

On to `O=c1oc2cc(O[C@@H]3O[C@H](CO)[C@@H](O)[C@H](O)[C@H]3O)ccc2c2ccccc12`, for which, in experiment [1], the inhibition turned out to be 11.5%. Moreover, the Kd in experiment [2] worked out at 106 µM.

As usually defined, the inhibition is how much of the control response was suppressed. A high value points to strong suppression. The Kd is the constant that tells how readily two partners part at equilibrium. A higher Kd goes with lower affinity. A word on the IC50: it is the concentration that gives 50% inhibition.

The values are drawn from ChEMBL document CHEMBL4715844, “Structure-based virtual screening and biological evaluation of novel non-bisphosphonate farnesyl pyrophosphate synthase inhibitors” (Eur J Med Chem, 2020).
